Experimental data: EP4806446A2
Where two headings read alike, the source gives them in different places.

Details: ester bond, DCM

CCn1c(-c2cc(N3CCN(C)CC3)cnc2[C@H](C)OC)c2c3cc(ccc31)-c1csc(n1)C[C@H](NC(=O)OC(C)(C)C)C(=O)N(C)NCC(=O)OCC(C)(C)C2
ring closure, yield of all isomers (from CCn1c(-c2cc(N3CCN(C)CC3)cnc2[C@H](C)OC)c(CC(C)(C)CO)c2cc(-c3csc(C[C@H](NC(=O)OC(C)(C)C)C(=O)N(C)NCC(=O)O)n3)ccc21, PyBOP/DMAP, 0.81 mM, 0.0 °C, 1.0 h): 42%

CCn1c(-c2cc(N3CCN(C4CC4)CC3)cnc2[C@H](C)OC)c2c3cc(ccc31)-c1nnc(o1)C[C@H](NC(=O)OCc1ccccc1)C(=O)N1N[C@H](C(=O)OCC(C)(C)C2)C2CC1C2
ring closure, yield of all isomers (from CCn1c(-c2cc(N3CCN(C4CC4)CC3)cnc2[C@H](C)OC)c(CC(C)(C)CO)c2cc(-c3nnc(C[C@H](NC(=O)OCc4ccccc4)C(=O)N4N[C@H](C(=O)O)C5CC4C5)o3)ccc21, PyBOP, DMAP, 6.64 mM, 25.0 °C, 16.0 h, 2 steps): 29%

CCn1c(-c2cc(N3CCN(C4CC4)CC3)cnc2[C@H](C)OC)c2c3cc(ccc31)-c1csc(n1)C[C@H](NC(=O)OC(C)(C)C)C(=O)N(C)NCC(=O)OCC(C)(C)C2
ring closure, yield of all isomers (from CCn1c(-c2cc(N3CCN(C4CC4)CC3)cnc2[C@H](C)OC)c(CC(C)(C)CO)c2cc(-c3csc(C[C@H](NC(=O)OC(C)(C)C)C(=O)N(C)NCC(=O)O)n3)ccc21, PyBOP/DMAP, 5.9 mM, 0.0 °C, 1.0 h): 27%

CCn1c(-c2cc(N3CCN(C(=O)OCc4ccccc4)CC3)cnc2[C@H](C)OC)c2c3cc(ccc31)-c1csc(n1)C[C@H](NC(=O)OC(C)(C)C)C(=O)N(C)NCC(=O)OCC(C)(C)C2
ring closure, yield of all isomers (from CCn1c(-c2cc(N3CCN(C(=O)OCc4ccccc4)CC3)cnc2[C@H](C)OC)c(CC(C)(C)CO)c2cc(-c3csc(C[C@H](NC(=O)OC(C)(C)C)C(=O)N(C)NCC(=O)O)n3)ccc21, EDCI/HOBt/DIEA, 4.25 mM, 25.0 °C, 16.0 h): 38.2%

CCn1c(-c2cc(N3CCN(C(=O)OCc4ccccc4)CC3)cnc2[C@H](C)OC)c2c3cc(ccc31)N1CCO[C@@H](C[C@H](NC(=O)OC(C)(C)C)C(=O)N3N[C@H](C(=O)OCC(C)(C)C2)C2CC3C2)C1
ring closure, yield of all isomers (from CCn1c(-c2cc(N3CCN(C(=O)OCc4ccccc4)CC3)cnc2[C@H](C)OC)c(CC(C)(C)CO)c2cc(N3CCO[C@@H](C[C@H](NC(=O)OC(C)(C)C)C(=O)N4N[C@H](C(=O)O)C5CC4C5)C3)ccc21, PyBOP/DMAP, 9.8 mM, 35.0 °C, 0.5 h): 16%

C=C[C@@H]1CCN2N[C@@H]1C(=O)OCC(C)(C)Cc1c(-c3cc(N4CCN(C(=O)OCc5ccccc5)CC4)cnc3[C@H](C)OC)n(CC)c3ccc(cc13)-c1csc(n1)C[C@H](NC(=O)OC(C)(C)C)C2=O
ring closure, yield of all isomers (from C=C[C@@H]1CCN(C(=O)[C@H](Cc2nc(-c3ccc4c(c3)c(CC(C)(C)CO)c(-c3cc(N5CCN(C(=O)OCc6ccccc6)CC5)cnc3[C@H](C)OC)n4CC)cs2)NC(=O)OC(C)(C)C)N[C@@H]1C(=O)O, EDCI/HOBt/DIEA, 10.0 mM, 25.0 °C, 16.0 h): 36.7%

CCn1c(-c2cc(N3CCN(C)CC3)cnc2[C@H](C)OC)c2c3cc(ccc31)-c1csc(n1)C[C@H](NC(=O)OC(C)(C)C)C(=O)N1N[C@H](C(=O)OCC(C)(C)C2)C2CC1C2
ring closure, yield of all isomers (from CCn1c(-c2cc(N3CCN(C)CC3)cnc2[C@H](C)OC)c(CC(C)(C)CO)c2cc(-c3csc(C[C@H](NC(=O)OC(C)(C)C)C(=O)N4N[C@H](C(=O)O)C5CC4C5)n3)ccc21, PyBOP/DMAP, 5.8 mM, 25.0 °C, 5.0 h): 48.8%

CCn1c(-c2cc(N3CCN(C(=O)OCc4ccccc4)CC3)cnc2[C@H](C)OC)c2c3cc(ccc31)-c1cccc(c1)C[C@H](NC(=O)OC(C)(C)C)C(=O)N1N[C@H](C(=O)OCC(C)(C)C2)C2CC1C2
ring closure, yield of all isomers (from CCn1c(-c2cc(N3CCN(C(=O)OCc4ccccc4)CC3)cnc2[C@H](C)OC)c(CC(C)(C)CO)c2cc(-c3cccc(C[C@H](NC(=O)OC(C)(C)C)C(=O)N4N[C@H](C(=O)O)C5CC4C5)c3)ccc21, EDCI/HOBt/DIEA, 6.0 mM, 25.0 °C, 16.0 h): 27%

CCn1c(-c2cccnc2[C@H](C)OC)c2c3cc(ccc31)N1CCO[C@@H](C[C@H](NC(=O)OC(C)(C)C)C(=O)N(C)NCC(=O)OCC(C)(C)C2)C1
ring closure, yield of all isomers (from CCn1c(-c2cccnc2[C@H](C)OC)c(CC(C)(C)CO)c2cc(N3CCO[C@@H](C[C@H](NC(=O)OC(C)(C)C)C(=O)N(C)NCC(=O)O)C3)ccc21, EDCI/HOBt, DIEA, 6.5 mM, 25.0 °C, 16.0 h): 44%

CCn1c(-c2cccnc2[C@H](C)OC)c2c3cc(ccc31)N1CCO[C@@H](C[C@H](NC(=O)OC(C)(C)C)C(=O)N3N[C@H](C(=O)OCC(C)(C)C2)C2CC3C2)C1
ring closure, yield of all isomers (from CCn1c(-c2cccnc2[C@H](C)OC)c(CC(C)(C)CO)c2cc(N3CCO[C@@H](C[C@H](NC(=O)OC(C)(C)C)C(=O)N4N[C@H](C(=O)O)C5CC4C5)C3)ccc21, PyBOP, DMAP, 2.6 mM, 25.0 °C, 16.0 h): 96.2%

CCn1c(-c2cc(N3CCN(C(=O)OCc4ccccc4)CC3)cnc2[C@H](C)OC)c2c3cc(ccc31)-c1csc(n1)C[C@H](NC(=O)OC(C)(C)C)C(=O)N1N[C@@H](C(=O)OCC(C)(C)C2)C2CC1C2
ring closure, yield of all isomers (from CCn1c(-c2cc(N3CCN(C(=O)OCc4ccccc4)CC3)cnc2[C@H](C)OC)c(CC(C)(C)CO)c2cc(-c3csc(C[C@H](NC(=O)OC(C)(C)C)C(=O)N4N[C@@H](C(=O)O)C5CC4C5)n3)ccc21, EDCI/HOBt/DIEA, 5.2 mM, 35.0 °C): 49%
